We go through 8 compounds from patent publication US7501417B2, “Aminocarbonyl-derivatives as novel inhibitors of histone deacetylase” (Janssen Pharmaceutica, N.V., priority 2002, dated 2009).

Data set [1] concerns the target HDAC (HeLa nuclear extracts). The experiment in a line: In vitro assay for inhibition of histone deacetylase. Type of data set: biochemical. Particulars: [3H]acetylated histone H4 peptide substrate. The protocol: The in vitro assay for inhibition of histone deacetylase (see example C.1) measures the inhibition of HDAC enzymatic activity obtained with the compounds of formula (I).
HeLa nuclear extracts (supplier: Biomol) were incubated at 60 μg/ml with 2×10^−8 M of radiolabeled peptide substrate. As a substrate for measuring HDAC activity a synthetic peptide, i.e. the amino acids 14-21 of histone H4, was used. The substrate is biotinylated at the NH2-terminal part with a 6-aminohexanoic acid spacer, and is protected at the COOH-terminal part by an amide group and specifically [^3H]acetylated at lysine 16. The substrate, biotin-(6-aminohexanoic)Gly-Ala-([^3H]-acetyl-Lys-Arg -His-Arg-Lys-Val-NH2), was added in a buffer containing 25 mM Hepes, 1 M sucrose, 0.1 mg/ml BSA and 0.01% Triton X-100 at pH 7.4. After 30 min the deacetylation reaction was terminated by the addition of HCl and acetic acid. (final concentration 0.035 mM and 3.8 mM respectively). After stopping the reaction, the free ^3H-acetate was extracted with ethylacetate. After mixing and centrifugation, the radioactivity in an aliquot of the upper (organic) phase was counted in a β-counter.
For each experiment, controls (containing HeLa nuclear extract and DMSO without compound), a blank incubation (containing DMSO but no HeLa nuclear extract or compound) and samples (containing compound dissolved in DMSO and HeLa nuclear extract) were run in parallel. In first instance, compounds were tested at a concentration of 10^−5M. […] In each test the blank value was subtracted from both the control and the sample values. The control sample represented 100% of substrate deactylation. For each sample the radioactivity was expressed as a percentage of the mean value of the controls. […] Herein the effects of test compounds are expressed as pIC50 (the negative log value of the IC50-value).

In data set [2] the test system is A2780 ovarian carcinoma cells. The experiment in a line: Determination of antiproliferative activity on A2780 cells (MTT). Type of data set: cell-based. Particulars: Homo sapiens, 96 h, four days of incubation, read-out: Cellular activity pIC50 (converted). Here is the method: Cellular activity of the compounds of formula (I) was determined on A2780 tumour cells using a colorimetric assay for cell toxicity or survival (Mosmann Tim, Journal of Immunological Methods 65: 55-63, 1983)(see example C.2).
All compounds tested were dissolved in DMSO and further dilutions were made in culture medium. Final DMSO concentrations never exceeded 0.1% (v/v) in cell proliferation assays. Controls contained A2780 cells and DMSO without compound and blanks contained DMSO but no cells. MTT was dissolved at 5 mg/ml in PBS. A glycine buffer comprised of 0.1 M glycine and 0.1 M NaCl buffered to pH 10.5 with NaOH (1 N) was prepared (all reagents were from Merck).
The human A2780 ovarian carcinoma cells (a kind gift from Dr. T. C. Hamilton [Fox Chase Cancer Centre, Pennsylvania, USA]) were cultured in RPMI 1640 medium supplemented with 2 mM L-glutamine, 50 μg/ml gentamicin and 10% fetal calf serum. Cells were routinely kept as monolayer cultures at 37° C. in a humidified 5% CO2 atmosphere. Cells were passaged once a week using a trypsin/EDTA solution at a split ratio of 1:40. All media and supplements were obtained from Life Technologies. Cells were free of mycoplasma contamination as determined using the Gen-Probe Mycoplasma Tissue Culture kit (supplier: BioMérieux).
Cells were seeded in NUNC™ 96-well culture plates (Supplier: Life Technologies) and allowed to adhere to the plastic overnight. Densities used for plating were 1500 cells per well in a total volume of 200 μl medium. After cell adhesion to the plates, medium was changed and drugs and/or solvents were added to a final volume of 200 μl. Following four days of incubation, medium was replaced by 200 μl fresh medium and cell density and viability was assessed using an MTT-based assay. To each well, 25 μl MTT solution was added and the cells were further incubated for 2 hours at 37° C. The medium was then carefully aspirated and the blue MTT-formazan product was solubilized by addition of 25 μl glycine buffer followed by 100 μl of DMSO. […] Within an experiment, the results for each experimental condition are the mean of 3 replicate wells. For initial screening purposes, compounds were tested at a single fixed concentration of 10^−6 M. For active compounds, the experiments were repeated to establish full concentration-response curves. For each experiment, controls (containing no drug) and a blank incubation (containing no cells or drugs) were run in parallel. The blank value was subtracted from all control and sample values. For each sample, the mean value for cell growth (in absorbance units) was expressed as a percentage of the mean value for cell growth of the control. […] Herein the effects of test compounds are expressed as pIC50 (the negative log value of the IC50-value).

Data set [3] is described as follows: Kinetic solubility in aqueous media (nephelometry). Type of data set: physicochemical. Particulars: aqueous buffer, kinetic from dmso stock; phosphate citrate buffer pH 7.4, turbidity of three dilution steps; read-out: Solubility Score. Here is the method:
Kinetic solubility in aqueous media measures the ability of a compound to stay in aqueous solution upon dilution (see example C.3).
DMSO-stock solutions are diluted with a single aqueous buffer solvent in 3 consecutive steps. For every dilution turbidity is measured with a nephelometer.
In the first dilution step, 10 μl of a concentrated stock-solution of the active compound, solubilized in DMSO (5 mM), was added to 100 μl phosphate citrate buffer pH 7.4 and mixed. In the second dilution step, an aliquot (20 μl) of the first dilution step was further dispensed in 100 μl phosphate citrate buffer pH 7.4 and mixed. Finally, in the third dilution step, a sample (20 μl) of the second dilution step was further diluted in 100 μl phosphate citrate buffer pH 7.4 and mixed. All dilutions were performed in 96-well plates. Immediately after the last dilution step the turbidity of the three consecutive dilution steps were measured with a nephelometer. Dilution was done in triplicate for each compound to exclude occasional errors. Based on the turbidity measurements a ranking is performed into 3 classes. Compounds with high solubility obtained a score of 3 and for this compounds the first dilution is clear. Compounds with medium solubility obtained a score of 2. For these compounds the first dilution is unclear and the second dilution is clear. […] The solubility of 3 compounds was measured.

Converted amounts (≈) assume the structure as drawn.

As for `Cc1ccc(NC(=O)N2CCN(c3ccc(NC(=O)CS)cc3)CC2)cc1` [Co. No. 3], the “Enzyme activity pIC50” value in data set [1] came out at 5.332. The IC50 in data set [2] is > 10000 nM.
The like results for `Cc1ccc(NC(=O)N2CCN(c3ccc(C(=O)NCCO)cc3)CC2)cc1` [Co. No. 2] were, in that order, <5 and > 10000 nM.
As a reminder, the solubility is the dissolved amount per volume that the medium holds. For orientation: melting point means the temperature of the solid-liquid transition. Consider `O=C(NCC1CCN(c2ncc(C(=O)NO)cn2)CC1)Nc1ccc(-c2ccccc2)cc1` [Co. No. 5], for which the melting point was > 260 °C. The “Enzyme activity pIC50” value in data set [1] is on record as 7.65. Besides, the IC50 in data set [2] was 711 nM. The solubility in data set [3] was in the range of 75.8 to 454 µM (≈ 33.8 to 203 µg/mL).
As to `O=C(NO)c1cnc(N2CCN(C(=O)N(c3ccccc3)c3ccccc3)CC2)nc1` [Co. No. 4], the “Enzyme activity pIC50” value in data set [1] is 7.127. For the same compound, the IC50 in data set [2] was 769 nM.
With `Cc1cccc(C)c1NC(=O)N1CCN(c2ccc([N+](=O)[O-])cc2C(=O)NO)CC1` [compound 30], in data set [1], the “Enzyme activity pIC50” value is given as >5.
With `Cc1ccc(NC(=O)N2CCN(c3ccc(C(=O)NO)cc3)CC2)cc1` [Co. No. 1], the “Enzyme activity pIC50” value in data set [1] was 6.754. Moreover, the IC50 in data set [2] is 4700 nM. Further, the solubility in data set [3] was < 75.8 µM.
For `CN(C(=O)N1CCN(c2ncc(C(=O)NO)cn2)CC1)c1ccccc1` [compound 48], the “Enzyme activity pIC50” value in data set [1] is 7.163. Also, the IC50 in data set [2] was 723 nM.
Take `O=C(NO)c1cnc(N2CCN(C(=O)Nc3ccc(-c4ccccc4)cc3)CC2)nc1` [Co. No. 6]: the melting point is > 260 °C. Also, in data set [1], the “Enzyme activity pIC50” value stood at 7.728. The IC50 in data set [2] was 277 nM. The solubility in data set [3] was > 454 µM.
